Among the data in patent publication EP4803519A1, “NOVEL PRMT5 INHIBITOR AND USE THEREOF” (Shanghai Apeiron Therapeutics Company Limited, priority 2023, dated 2025) are IC50 values, retold here.

Molecules are shown by their SMILES. A value given as a limit tells only on which side of the number the result lay.

What all share (assay type): cell-based
Experiment [1] relates to HCT-116 MTAP(-/-)deleted cells. In words: Inhibitory activity on proliferation of HCT-116 MTAP(-/-)deleted cells (Cell-Titer Glo). The note with it: Homo sapiens, 144 h, incubated 6 d, 0-1,000 nM. The procedure:
Materials and cells: HCT-116 MTAP(-/-)deleted cells were purchased from Kyinno Biotechnology (China); RPMI-1640 medium, and fetal bovine serum were purchased from Thermo Fisher (United States); 384-well plates were purchased from PerkinElmer (United States); Cell-Titer Glo kit was purchased from Promega (United States).
Cell culture: HCT116 MTAP(-/-)deleted cells were cultured with RPMI 1640 medium containing 10% fetal bovine serum at 37°C in 5% carbon dioxide. Only cells in the logarithmic growth phase could be used for the test.
(§1) Test of inhibitory activity on cell proliferation: The Cell-Titer Glo kit was used to test the proliferation inhibitory activity of the compounds on HCT-116 MTAP(-/-)deleted cells. The cell concentration was adjusted, rendering that cells were inoculated into a 384-well plate at 40 µL per well and incubated overnight at 37°C and 5% carbon dioxide. 80 nL of the compound was added into each well to reach a final concentration of 0-1,000 nM (starting concentration 1,000 nM, 2.5-fold dilution, 10 points), and the cell plate with 0.2% DMSO content was incubated at 37°C and 5% carbon dioxide for 6 d. 40 µL of Cell-Titer Glo reagent was added to test cell viability.

For a further experiment, the system named is HCT-116 wild-type cells. In words: Inhibitory activity on proliferation of HCT-116 wild-type cells (Cell-Titer Glo). Particulars: Homo sapiens, 144 h, incubated 6 d, 0-10,000 nM. Here is the method:
Materials and cells: HCT-116 wild-type cells were purchased from Kyinno Biotechnology (China); RPMI-1640 medium, and fetal bovine serum were purchased from Thermo Fisher (United States); 384-well plates were purchased from PerkinElmer (United States); Cell-Titer Glo kit was purchased from Promega (United States).
Cell culture: HCT-116 wild-type cells were cultured in RPMI-1640 medium containing 10% fetal bovine serum at 37°C and 5% carbon dioxide. Only cells in the logarithmic growth phase could be used for the test.
Test of cell proliferation activity: Cell-Titer Glo kit was used to test the proliferation inhibitory activity of the compound on HCT-116 wild-type cells. The cell concentration was adjusted, rendering that cells were inoculated into a 384-well plate at 40 µL per well and incubated overnight at 37°C and 5% carbon dioxide. 80 nL of the compound was added to each well to reach a final concentration of 0-10,000 nM (starting concentration 10,000 nM, 2.5-fold dilution, 10 points), and the cell plate with 0.2% DMSO content was incubated at 37°C and 5% carbon dioxide for 6 d. 40 µL of Cell-Titer Glo reagent was added to test cell viability.

In experiment [2] the test system is LU99 MTAP(-/-)deleted cells. In words: Inhibitory activity on proliferation of LU99 MTAP(-/-)deleted cells (Cell-Titer Glo). Particulars: Homo sapiens, Lu-99, 144 h, incubated 6 d, 0-1,000 nM. Here is the method:
Materials and cells: LU99 MTAP deleted cell line was purchased from Kyinno Biotechnology (China); cell culture medium and fetal bovine serum were purchased from Thermo Fisher Scientific (USA); 384-well plates were purchased from PerkinElmer (USA); Cell-Titer Glo kits were purchased from Promega (USA).
Cell culture: LU99 MTAP(-/-)deleted cells were cultured with medium containing 10% fetal bovine serum at 37°C in 5% carbon dioxide. Only cells in the logarithmic growth phase could be used for the test.
as §1, with “on LU99” for “on HCT-116”, “dioxide. 40” for “dioxide. 80”, “added to” for “added into”

Experiment [3] deals with LU99 MTAP overexpressing cells. In words: Inhibitory activity on proliferation of LU99 MTAP overexpressing cells (Cell-Titer Glo). Particulars: Homo sapiens, Lu-99, 144 h, incubated 6 d, 0-10,000 nM. The procedure: Materials and cells: LU99 MTAP overexpressing cell line was purchased from Kyinno Biotechnology (China); cell culture medium and fetal bovine serum were purchased from Thermo Fisher Scientific (USA); 384-well plates were purchased from PerkinElmer (USA); Cell-Titer Glo kits were purchased from Promega (USA).
Cell culture: LU99 MTAP overexpressing cells were cultured with medium containing 10% fetal bovine serum at 37°C in 5% carbon dioxide. Only cells in the logarithmic growth phase could be used for the test.
Test of inhibitory activity on cell proliferation: The Cell-Titer Glo kit was used to test the proliferation inhibitory activity of the compounds on LU99 MTAP overexpressing cells. The cell concentration was adjusted, rendering that cells were inoculated into a 384-well plate at 40 µL per well and incubated overnight at 37°C and 5% carbon dioxide. 40 nL of the compound was added to each well to reach a final concentration of 0-10,000 nM (starting concentration 10,000 nM, 2.5-fold dilution, 10 points), and the cell plate with 0.2% DMSO content was incubated at 37°C and 5% carbon dioxide for 6 d. 40 µL of Cell-Titer Glo reagent was added to test cell viability.

On to `CN(C(=O)c1ccc2nc(N)c3cnn(C)c3c2c1)C1COC(C)(C)c2cc(-n3cc(C(F)(F)F)cn3)ccc21` (stereo not shown) [Example 47, 4-amino-N-(1,1-dimethyl-7-(4-(trifluoromethyl)-1H-pyrazol-1-yl)isochroman-4-yl)-N,1-dimethyl-1H-pyrazolo[4,3-c]quinoline-8-carboxamide], for which the IC50 in experiment [1] was found to be 5.9 nM; in the experiment with HCT-116 wild-type cells it was 1600 nM; in experiment [2], 7.5 nM; in experiment [3], 1380 nM.

In the case of `CN(C(=O)c1ccc2nc(N)c3cnn(C)c3c2c1)C1COC(C)(C)c2nc(C(F)(F)F)ccc21` (stereo not shown) [Example 39], the IC50 in experiment [1] is 5.2 nM; in the experiment on HCT-116 wild-type cells, 1140 nM; in experiment [2], 8.4 nM; in experiment [3] it was 1290 nM.

Take `CC1OCc2c1c(N)nc1cnc(C(=O)N(C)C3COC(C)(C)c4cc(C(F)(F)F)ccc43)cc21` (stereo not shown) [Example 18, 4-Amino-N-(1,1-dimethyl-7-(trifluoromethyl)isochroman-4-yl)-N,3-dimethyl-1,3-dihydrofuro[3,4-c][1,7]naphthyridine-8-carboxamide]: the IC50 in experiment [1] turned out to be 38.4 nM; in the experiment with HCT-116 wild-type cells, 3080 nM; in experiment [2], 62.9 nM; in experiment [3], 3970 nM.

Take `CN(C(=O)c1ccc2nc(N)c3cnn(C)c3c2c1)[C@H]1COC(C)(C)c2nc(C(F)(F)F)ccc21` [Example 51]: the IC50 in experiment [1] was 3.1 nM; in the experiment with HCT-116 wild-type cells, 447 nM; in experiment [2], 4.9 nM; in experiment [3] it was 711 nM.

Take `CN(C(=O)c1ccc2nc(N)c3c(c2c1)CCO3)C1COC(C)(C)c2cc(C(F)(F)F)ccc21` (stereo not shown) [Example 4, 4-Amino-N-(1,1-dimethyl-7-(trifluoromethyl)isochroman-4-yl)-N-methyl-1,2-dihydrofuro[2,3-c]quinoline-8-carboxamide]: the IC50 in experiment [1] came out at 1090 nM; with HCT-116 wild-type cells, 8140 nM; in experiment [2], 2260 nM; in experiment [3], 3270 nM.

On to `CN(C(=O)c1ccc2nc(N)c3c(c2c1)COC3)C1COC(C)(C)c2cc(C(F)(F)F)ccc21` (stereo not shown) [Example 8, 4-Amino-N-(1,1-dimethyl-7-(trifluoromethyl)isochroman-4-yl)-N-methyl-2,3-dihydrofuro[3,4-c]quinoline-8-carboxamide], for which the IC50 in experiment [1] is 16 nM; in the experiment with HCT-116 wild-type cells it was 3510 nM; in experiment [2], 25.2 nM; in experiment [3] it was 3250 nM.

As to `CN(C(=O)c1ccc2nc(N)c3cnn(C)c3c2c1)[C@@H]1COC2(CCC2)c2cc(C(F)(F)F)ncc21` [Example 84, N-[(4S)-7-(trifluoromethyl)spiro[1,4-dihydro-3H-pyrano[4,5-c]pyridine-1,1'-cyclobutan]-4-yl](4-amino-1-methylpyrazolo[4,5-c]quinolin-8-yl)-N-methylformamide], the IC50 was 6.7 nM in experiment [1], 1370 nM in the experiment on HCT-116 wild-type cells, 10 nM in experiment [2] and 1640 nM in experiment [3].

Take `Cc1nn(C)c2c1c(N)nc1ccc(C(=O)N(C)[C@@H]3COC(C)(C)c4cc(C(F)(F)F)ccc43)cc12` [Example 35, (S)-4-amino-N-(1,1-dimethyl-7-(trifluoromethyl)isochroman-4-yl)-N,1,3-trimethyl-1H-pyrazolo[4,3-c]quinoline-8-carboxamide]: the IC50 was found to be 15 nM in experiment [1], 2100 nM in the experiment with HCT-116 wild-type cells, 24.2 nM in experiment [2] and 858 nM in experiment [3].

For `CN(C(=O)c1cc2c3c(c(N)nc2cn1)COC3)C1COC(C)(C)c2cc(-c3ccnn3C)ccc21` (stereo not shown) [Example 9, (4-Amino(1,3-dihydrofuro[3,4-d]pyrido[5,4-b]pyridin-8-yl))-N-[1,1-dimethyl-7-(1-methylpyrazol-5-yl)isochroman-4-yl]-N-methylformamide], the 50% inhibitory concentration (IC50) in experiment [1] is 45.4 nM; in the experiment with HCT-116 wild-type cells, greater than 10000 nM; in experiment [2] it was 85 nM; in experiment [3], 9790 nM.

In the case of `CN(C(=O)c1ccc2nc(N)c3cnn(C)c3c2c1)[C@@H]1COC(C)(C)c2cc(-c3cnn(C(F)(F)F)c3)ccc21` [Example 32, (S)-4-amino-N-(1,1-dimethyl-7-(1-(trifluoromethyl)-1H-pyrazol-4-yl)isochroman-4-yl)-N,1-dimethyl-1H-pyrazolo[4,3-c]quinoline-8-carboxamide], the IC50 was determined as 5.7 nM in experiment [1], 1530 nM in the experiment on HCT-116 wild-type cells, 6.8 nM in experiment [2] and 1890 nM in experiment [3].

For the compound `CN(C(=O)c1ccc2nc(N)c3cnn(C)c3c2c1)C1COC(C)(C)c2cc(C(F)(F)F)ncc21` (stereo not shown) [Example 43, (4-Amino-1-methylpyrazolo[4,5-c]quinolin-8-yl)-N-[1,1-dimethyl-7-(trifluoromethyl)(1,4-dihydro-3H-pyrano[4,5-c]pyridin-4-yl)]-N-methylformamide], the IC50 in experiment [1] amounted to 9.4 nM; with HCT-116 wild-type cells it was 2130 nM; in experiment [2] it was 12.3 nM; in experiment [3], 2570 nM.

As to `CN(C(=O)c1ccc2nc(N)c3ncncc3c2c1)[C@@H]1COC(C)(C)c2cc(C(F)(F)F)ccc21` [Example 36, N-[(4S)-1,1-dimethyl-7-(trifluoromethyl)isochroman-4-yl](5-aminopyrimido[4,5-c]quinolin-9-yl)-N-methylformamide], the IC50 in experiment [1] stood at 95.1 nM; in the experiment on HCT-116 wild-type cells, 2840 nM; in experiment [2] it was 116 nM; in experiment [3] it was 668 nM.

`CN(C(=O)c1cc2c3c(c(N)nc2cn1)COC3)[C@@H]1COC(C)(C)c2cc(C(F)(F)F)ccc21` [Example 26, (S)-4-Amino-N-(1,1-dimethyl-7-(trifluoromethyl)isochroman-4-yl)-N-methyl-1,3-dihydrofuro[3,4-c][1,7]naphthyridine-8-carboxamide]: the IC50 in experiment [1] was 11 nM; in the experiment with HCT-116 wild-type cells, 2050 nM; in experiment [2] it was 14.9 nM; in experiment [3] it was 1310 nM.

As for `CN(C(=O)c1ccc2nc(N)c3cnccc3c2c1)[C@@H]1COC(C)(C)c2cc(C(F)(F)F)ccc21` [Example 37, (S)-5-amino-N-(1,1-dimethyl-7-(trifluoromethyl)isochroman-4-yl)-N-methylbenzo[c][2,7]naph thyridine-9-carboxamide], the IC50 in experiment [1] is 33.4 nM; with HCT-116 wild-type cells it was 4100 nM; in experiment [2], 36.4 nM; in experiment [3] it was 810 nM.

On to `CN(C(=O)c1ccc2nc(N)c3cnn(C)c3c2c1)[C@@H]1COC(C)(C)c2nc(C(F)(F)F)ccc21` [Example 50], for which the IC50 in experiment [1] is 413 nM; with HCT-116 wild-type cells, greater than 10000 nM; in experiment [2], 525 nM; in experiment [3], 7400 nM.

`CN(C(=O)c1ccc2nc(N)c3c(cnn3C)c2c1)[C@@H]1COC(C)(C)c2cc(C(F)(F)F)ccc21` [Example 21, (S)-4-amino-N-(1,1-dimethyl-7-(trifluoromethyl)isochroman-4-yl)-N,3-dimethyl-3H-pyrazolo[3,4-c]quinoline-8-carboxamide]: the IC50 in experiment [1] came out at 20.8 nM; in the experiment on HCT-116 wild-type cells, 4370 nM; in experiment [2] it was 33.7 nM; in experiment [3], 2820 nM.

A word on the IC50: it is the concentration that inhibits the measured activity by half. Read a high IC50 as weaker potency.
